pIC50: −log10 of the molar value. Like-named read-outs stand apart in the source and are kept apart here.
Experiments:
[1] = system: Panc1 (AR+) pancreatic cancer cells; assay: ATP-dependent proliferation/viability assay, Panc1; assay type: cell-based; details: Homo sapiens, read-out: IC50
Experimental: The experimental method consisted of: • 1. […] After 24 hours, 10 nM DHT (dihydrotestosterone) with or without anti-androgen compounds, or DMSO vehicle (negative control) was added to the cultures. • 3.
Each compounds was titrated from 3 uM to 200 uM.

[2] = system: HT29 epithelial intestinal cancer cells; assay: MTT colorimetric assay on HT29; assay type: cell-based; details: Homo sapiens, 72 h
Experimental: The experiment was performed to test and define anticancer activity in vitro of Cortexolone 17α-benzoate and cortexolone 17α-valerate-21-propionate on cell lines representatives of epithelial intestinal tumors, namely HT29. The experiment method consisted in: • 1. Monolayer HT-29 cells were plated in: 96-wells plates at the density of 2×10^4 cells/mL. The cells plated were kept at 37° C. in 5% CO2 and left to attach for 24 h. • 2. Thereafter the cells were incubated for 72 h with the test compounds at the concentrations each of […]. • 3. After 72 h of treatment, the MTT colorimetric assay was performed.

wild type AR (AR-LBD) = molecular target: T1, wild type AR (AR-LBD) (Rattus norvegicus, UniProt P15207); assay: AR competition binding assay (Polar Screen, fluorescence polarization); details: displacement of Fluormone AL Green from AR-LBD; read-out: affinity for AR receptor (IC50 molar)
T1 construct: purchased life Technologies
T1 sequence (P15207 651-882 limits assumed): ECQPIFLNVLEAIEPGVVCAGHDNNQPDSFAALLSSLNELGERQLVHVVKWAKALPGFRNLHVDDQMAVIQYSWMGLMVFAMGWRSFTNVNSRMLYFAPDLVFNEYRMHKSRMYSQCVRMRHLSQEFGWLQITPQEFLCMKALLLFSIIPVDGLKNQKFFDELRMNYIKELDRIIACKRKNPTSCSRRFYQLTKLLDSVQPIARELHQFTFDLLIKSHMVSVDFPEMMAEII
Experimental: Briefly, the AR was added to a fluorescent androgen ligand (Fluormone™ AL Green) to from the complex AR-LBD. Competitors displaced the fluorescent Fluormone™ AL Green ligand from the AR-LBD causing the fluorescent ligand to tumble rapidly during its fluorescence lifetime, resulting in a low polarization value. Non competitors will not displace the fluorescent ligand from the complex, so the polarization value remains high. The shift in polarization value in the presence of test compounds is used to determine relative affinity of test compounds for AR-LBD.

MiaPaca2 cells = assay: Annexin V / propidium iodide apoptosis assay; assay type: cell-based, human; details: 24 hours, control 11%
Experimental: CB-03-10 was evaluated to determine if the mechanism of cytotoxicity on cancer cell lines was mediated by apoptosis and cell cycle arrest. Cancer cell lines were seeded in 6-well flat bottom plates. After 24 hours test compounds or DMSO vehicle (negative control) were added. After an additional 24 hours cells were scraped and stained with fluorescein conjugated Annexin V and propidium iodide and analyzed by flow cytometry.

[3] = system: Caspase 8, 9 and 3/7 in MiaPaca2 cells; assay: Caspase activity in MiaPaca2 cells; assay type: cell-based, human
Experimental: From previous studies was determined that CB-03-10 induces apoptosis using Annexin V staining in MiaPaca2 cells. To better analyze the phenomenon the enzymatic activity of Caspase 8 (initiator caspase for Extrinsic Pathway) and Caspase 9 (initiator caspase for Intrinsic Pathway) and of Caspases 3 and 7 (effector caspases) were measured.
After 24 hours test compounds were added to cells, Gemcitabine (a known pancreatic cancer chemotherapeutic agent) and DMSO were used as positive and negative control, respectively. After 8, 24, & 48 hours incubation with test compounds, cells were lysed in buffer containing the caspase 3/7 or 8 or 9 substrate and a stable luciferase in proprietary buffers. The lysates were transferred to white opaque plates before measuring luminescence in a Tecan Safire instrument. Parallel plates treated identically, were used to determine viable cells. All caspase activities were corrected for the number of viable cells.

[4] = In vitro metabolism in human plasma; assay type: in vitro ADME; details: 37° C.; FIG. 13
Experimental: To obtain some insights on the metabolism of CB-03-10 in human and rat plasma, a specific assay was designed. Briefly the compound was incubated at different time in human and rat plasma at 37° C. After incubation the samples were tested for presence of the intact compound by liquid chromatography.

Structure (SMILES): CCCCC(=O)O[C@]1(C(=O)COC(=O)CC)CC[C@H]2[C@@H]3CCC4=CC(=O)CC[C@]4(C)[C@H]3CC[C@@]21C [CB-03-10, cortexolone 17α-valerate-21-propionate]
- pIC50 ([1]; PANC-1, 72 h, Panc1, 10 nM DHT, 3 days, Examples 3-4, Experiment 1): 4.18
- pIC50 ([1]; PANC-1, Panc1, Example 7, Experiment 1): 4.17
- inhibition at 0.8 µM ([2]; HT-29, 0.8 micromolar): 0.44%
- inhibition at 4 µM ([2]; HT-29, 4 micromolar): 14.2%
- inhibition at 20 µM ([2]; HT-29, 20 micromolar): 25.5%
- inhibition at 100 µM ([2]; HT-29, 100 micromolar): 89.8%
- inhibition at 500 µM ([2]; HT-29, 500 micromolar): 92.1%
- pIC50 (wild type AR (AR-LBD)): 5.96
- cells in apoptosis (early and late), total (MiaPaca2 cells): 28%
- Caspase 3/7 induction ([3]; 8, 24, 48 hours): already at 8 hours at and a really high level after 48 hours incubation
- increase in Caspase 8 and 9 activity compared to control ([3]; 20 or 50 μM, 8, 24, 48 hours, corrected for viable cells): ≤ 7 fold
- degradation in human plasma [4]: rapidly degraded to CB-03-05
